# Patent US6982252B2, “Inhibition of vacuolar proton ATPase activity and/or the modulation of acidic organelle function sensitizes cells to radiation, chemotherapy and biological agents” (Memorial Sloan-Kettering Cancer Center, priority 2000, dated 2006)
# “And” between values parts separate entries of the source, which are not always exact repeats. Identical values can stand only once.
# Tests used:
# [1] = system: acidic vesicular organelles (AVO) in MCF-7 cells; experiment: Mean red/green fluorescence ratio in acridine orange stained cells by flow cytometry; assay type: cell-based, human; conditions: 500 nM bafilomycin A1 30 minutes prior to acridine orange
# Protocol: bFGF was added to cultures of MCF-7 cells at 10 ng/ml for 48 hours. TNF was added at 2.3 nM for 48 hours. PMA was added for 1 hour at a concentration of 30 nM, followed by rinsing of the cells and incubation for an additional 48 hours.
# Cell staining was performed according to standard techniques (Arvan et al., 1984, J. Bio. Chem. 259:13567-13572; Mains and May, 1988, J. Biol. Chem. 263:7887-7894; Traganos and Darzynkiewicz, Methods in Cell Biology 41:185-194, Academic Press). Acridine orange (Polysciences, Warrington, Pa.) was added to a final concentration of 1 μg/ml for 15 minutes. Bafilomycin A1 (Sigma Chemical Co., St. Louis, Mo.) was dissolved in DMSO and added to the cells 30 minutes prior to the addition of acridine orange. LysoSensor Blue DND-167 (Molecular Probes, Eugene, Oreg.) at a final concentration of 10 μM was added for 8 minutes. Pictures were obtained with a fluorescence microscope (Olympus BH-2 RFCA), equipped with a mercury-100 W lamp, 490 nm band pass blue excitation filters, 500 nm dichroic mirror and a 515 nm long pass barrier filter. Images of control and irradiated cells were recorded on Kodak Elite II 100 ASA film for color slides by 4 seconds exposure.
# In acridine orange stained cells the cytoplasm and nucleolus fluoresce bright green and dim red, while acidic compartments fluoresce bright red (Mains and May, 1988, J. Biol. Chem. 263:7887-7894; Traganos and Darzynkiewicz, Methods in Cell Biology Vol. 41, pp. 185-194, Academic Press). The intensity of the red fluorescence is proportional to the degree of acidity and/or the volume of the cellular acidic compartment. Therefore, by comparing the mean red/green fluorescence ratio within different cell populations, a change in the degree of acidity and/or the fractional volume of the cellular acidic compartment could be measured. Cells were stained with acridine orange for […], removed from the plate with trypsin-EDTA and collected in phenol red-free growth medium. Green (510-530 nm) and red (>650 nm) Fluoresence emission from 10,000 cells illuminated with blue (488 nm) excitation light was measured with a FACSCalibur from Becton Dickinson (San Jose, Calif.) using CellQuest software. The red to green fluorescence ratio for individual cells was calculated using FlowJo software (TREE STAR, Inc., San Carlos, Calif.). To control for possible effect of trypsinization on the measured red to green fluorescence ratio, the ratios were compared by flow cytometry with those obtained with a Laser Scanning Microscope (LSM510 from Zeiss). Stained cells, grown on cover glass, were illuminated with a 488 nm argon laser beam. The red (>650 nm) to green (505-545 nm) fluorescence ratio of an entire image was obtained using software LSM 510 version 2.01 SP2. These measurements yielded similar results to those obtained with flow cytometry. All determinations of red to green fluorescence ratio reported in this section were obtained via flow cytometry.
# [2] = system: MCF-7 (human breast adenocarcinoma); experiment: Clonogenic survival (surviving fraction) of MCF-7 cells after radiation or chemotherapeutic agent; assay type: cell-based
# Protocol: MCF-7 (human breast adenocarcinoma), LoVo (human colon adenocarcinoma) and LNCaP (human prostate carcinoma) were obtained from the American Type Culture Collection. Cells were maintained as described in Paglin et al., 1997, Biochem. Biophs. Res. Comm. 237:678-684). Irradiation was carried out 48 hours post-plating (T0) at room temperature using a Cs-137 irradiator (Sheperd Mark-I, model 68, SN643) at a dose rate of 2.43-2.32 Gy/min. Bovine aortic endothelial cells were grown and treated with H2O2 as described in Haimovitz-Friedman et al., 1994, J. Exp. Med. 180:525-535 and Verhij et al., 1996, Nature 380:75-79. Phorbol 12-myristate 13-acetate (PMA; Alexis Biochemicals Corp., San Diego, Calif.) was dissolved in dimethyl sulfoxide (DMSO) and added to cells for the duration of one hour. The final DMSO concentration was 0.03%. The cells were then rinsed with warm growth medium before being returned to the incubator for an additional 48 hours.
# Cells were plated in growth medium at a density of 30-90 cells per square centimeter and irradiated 22 hours later. Each experimental condition was done in quintet or triplicate. Cells were irradiated at room temperature in Cs-137 Irradiator (Sheperd Mark-I, Model 68, SN 643) at a rate of 2.43-2.32 Gy/min. […] For determination of their red to green ratio, colonies were processed as described above. For determination of surviving fractions cells were stained with crystal violet and colonies containing 50 cells or more were counted with a dissecting microscope. The surviving fraction was defined as the ratio between the plating efficiencies of irradiated and non-irradiated cells and was calculated at each dose level according to Hall and Phill (1994, […] for the Radiologist, 4th Edition, J. Lippincott Co., Philadelphia).
# [3] = Bafilomycin A1 8 nM, no radiation
substance,measurement,setting,value
bafilomycin A1,radiation-induced increase of mean red/green fluorescence ratio,[1]; 24 hours following 10 Gy,inhibited its radiation-induced increase
same,mean red/green fluorescence ratio in unirradiated cells,[1]; unirradiated,decreased
same,reduction of survival of irradiated cells,"[2]; 2 nM bafilomycin A1, 300 cGy, two separate experiments",45% and 32%
same,Surviving fraction in the presence of Baf A1 (2nM),"[2]; Baf A1 2nM added at irradiation for 24 hours, 2 Gy",0.51 ± 0.07
same,Surviving fraction in the presence of Baf A1 (2nM),"[2]; Baf A1 2nM added at irradiation for 24 hours, 3 Gy",0.23 ± 0.05
same,Surviving fraction in the presence of Baf A1 (2nM),"[2]; Baf A1 2nM for 24 hours, 0 Gy, listed as Baf A1",0.9 ± 0.14
same,Surviving fraction in the presence of Baf A1 (2nM),"[2]; Baf A1 2nM for 24 hours, 0 Gy, listed as bafilomycin A1",without significantly affecting
same,Normalized Surviving Fraction,"[2]; Bafilomycin A1 8 nM, 2 Gy",0.47
same,Plating Efficiency,"[2]; Bafilomycin A1 8 nM, 2 Gy",43 ± 7.7
same,Surviving Fraction,"[2]; Bafilomycin A1 8 nM, 2 Gy",0.26
same,Normalized Surviving Fraction,"[2]; Bafilomycin A1 8 nM, 4 Gy",0.11
same,Plating Efficiency,"[2]; Bafilomycin A1 8 nM, 4 Gy",21 ± 3.4
same,Surviving Fraction,"[2]; Bafilomycin A1 8 nM, 4 Gy",0.06
same,Normalized Surviving Fraction,"[2]; Bafilomycin A1 8 nM, 6 Gy",0.23
same,Plating Efficiency,"[2]; Bafilomycin A1 8 nM, 6 Gy",7 ± 3
same,Surviving Fraction,"[2]; Bafilomycin A1 8 nM, 6 Gy",0.01
same,Normalized Surviving Fraction,[2]; [3],1
same,Plating Efficiency,[2]; [3],98 ± 12
same,Surviving Fraction,[2]; [3],0.59
same,decrease of survival,"[2]; MCF-7, 2 nM bafilomycin, 100 nM adriamycin",34%
same,Surviving Fraction,"[2]; Table 4, 2 nM bafilomycin A1, 2 Gy",0.51 ± 0.07
same,Surviving Fraction,"[2]; Table 4, 2 nM bafilomycin A1, 4 Gy",0.17 ± 0.02
same,Surviving Fraction,"[2]; Table 4, 2 nM bafilomycin A1, 6 Gy",0.02 ± 0.003
same,decrease of survival following irradiation,"[2]; Table 4, 2 nM bafilomycin A1, 200 cGy",27%
same,decrease of survival following irradiation,"[2]; Table 4, 2 nM bafilomycin A1, 400 cGy",37%
same,decrease of cell survival following irradiation,"[2]; Table 5, 2 nM bafilomycin A1, 200 cGy",19%
same,decrease of cell survival following irradiation,"[2]; Table 5, 2 nM bafilomycin A1, 400 cGy",13%
same,Surviving Fraction,"[2]; Table 5, 2 nM bafilomycin A1, Radiation Dose (cGy) 0",1 ± 0.07
same,Surviving Fraction,"[2]; Table 5, 2 nM bafilomycin A1, Radiation Dose (cGy) 2",0.57 ± 0.04
same,Surviving Fraction,"[2]; Table 5, 2 nM bafilomycin A1, Radiation Dose (cGy) 4",0.27 ± 0.01
same,Surviving Fraction,"[2]; Table 5, 2 nM bafilomycin A1, Radiation Dose (cGy) 6",0.05 ± 0.01
same,reduction of survival,"[2]; Table 6, 2 nM bafilomycin, 3 Gy",37%
same,Surviving Fraction,"[2]; Table 6, 2 nM bafilomycin, X radiated 3 Gy",0.28 ± 0.03
same,Surviving Fraction,"[2]; Table 6, 4 nM bafilomycin, C non-irradiated control",0.7 ± 0.03
same,Surviving Fraction,"[2]; Table 6, 4 nM bafilomycin, X radiated 3 Gy",0.2 ± 0.03
same,Surviving Fraction,"[2]; Table 6, 8 nM bafilomycin, C non-irradiated control",0.66 ± 0.05
same,Surviving Fraction,"[2]; Table 6, 8 nM bafilomycin, X radiated 3 Gy",0.14 ± 0.02
same,Surviving Fraction,"[2]; Table 6, 16 nM bafilomycin, C non-irradiated control",0.52 ± 0.05
same,Surviving Fraction,"[2]; Table 6, 16 nM bafilomycin, X radiated 3 Gy",0.12 ± 0.03
same,Surviving Fraction,"[2]; Table 7, 2 nM bafilomycin A1, C non-irradiated",does not significantly affect
same,Surviving Fraction,"[2]; Table 7, 2 nM bafilomycin A1, C non-irradiated, listed as bafilomycin Al",0.92 ± 0.06
same,Surviving Fraction,"[2]; Table 7, 2 nM bafilomycin A1, X radiated 3 Gy",0.22 ± 0.04
same,reduction of cell survival,"[2]; Table 7, 2 nM bafilomycin, 300 cGy",49%
same,Surviving Fraction,"[2]; Table 7, 4 nM bafilomycin A1, C non-irradiated",0.79 ± 0.04
same,Surviving Fraction,"[2]; Table 7, 4 nM bafilomycin A1, X radiated 3 Gy",0.16 ± 0.04
same,Surviving Fraction,"[2]; Table 7, 8 nM bafilomycin A1, C non-irradiated",0.60 ± 0.08
same,Surviving Fraction,"[2]; Table 7, 8 nM bafilomycin A1, X radiated 3 Gy",0.12 ± 0.02
same,Surviving Fraction,"[2]; Table 7, 16 nM bafilomycin A1, C non-irradiated",0.35 ± 0.05
same,Surviving Fraction,"[2]; Table 7, 16 nM bafilomycin A1, X radiated 3 Gy",0.09 ± 0.04
same,survival (head of column empty),"[2]; Table 15, MCF-7, Bafilomycin 2 nM alone",0.95 ± 0.1
same,"survival, column Adriamycin","[2]; Table 15, MCF-7, Bafilomycin 4 nM + 100 nM adriamycin",0.35 ± 0.05
same,survival (head of column empty),"[2]; Table 15, MCF-7, Bafilomycin 4 nM alone",0.61 ± 0.05
same,"cell survival, Bafilomycin A1 (2 nM)","[2]; Table 18, MCF-7, Bafilomycin A1 2 nM + Etoposide 0.05 μg/ml",0.36 ± 0.08
same,reduction of the surviving fraction,[2]; bafilomycin A1 for 24 hours following irradiation with 2 and 3 Gy,30%-40%
